The target of this experiment is T1, Human adenosine A2A receptor (Homo sapiens, UniProt P29274).
T1 construct: host or cells: CHO
T1 sequence (P29274 whole entry): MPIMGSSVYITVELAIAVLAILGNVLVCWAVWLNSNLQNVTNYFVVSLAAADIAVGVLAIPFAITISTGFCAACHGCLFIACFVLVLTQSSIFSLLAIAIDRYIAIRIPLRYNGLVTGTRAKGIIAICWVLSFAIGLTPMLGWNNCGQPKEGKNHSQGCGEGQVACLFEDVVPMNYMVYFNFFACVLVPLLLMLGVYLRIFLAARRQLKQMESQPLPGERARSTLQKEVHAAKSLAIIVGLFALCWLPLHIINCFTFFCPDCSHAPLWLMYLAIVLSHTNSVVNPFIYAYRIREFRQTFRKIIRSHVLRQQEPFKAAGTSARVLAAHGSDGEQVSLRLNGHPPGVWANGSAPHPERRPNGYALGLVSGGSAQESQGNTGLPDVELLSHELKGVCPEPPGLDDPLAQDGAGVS
Briefly: Human adenosine A2A receptor calcium flux assay. Format: cell-based. The conditions noted are these: A2A stable CHO cell strain, antagonist mode against agonist NECA at EC80, FLIPR Fluo-4. Here is the method: Human adenosine A2A receptor calcium flux assay
A2A stable cell strain was constructed by Shanghai WuXi PharmaTech, and the host cell was CHO.
Fluo-4 Direct Kit (Invitrogen, Cat. No. F10471). After the fluorescent detection reagent (specifically binding to calcium ions and causing an increase in fluorescence signal) in the kit was incubated with the cells for a suitable period of time, the compound was added to stimulate the cells to cause changes in intracellular calcium flux, thereby causing changes in the fluorescent signal, which can reflect the strength of the agonistic or inhibitory activity of the compound.
F12+10% fetal bovine serum+geneticin 300 ug/ml+blasticidin 2 ug/ml Compound dilution buffer:
Hanks Balanced Salt Buffer (Invitrogen)+20 mM HEPES, configured before each use
The test compounds were dissolved in DMSO to prepare 10 mM stock solutions. The test compounds were diluted to 0.2 mM with DMSO, and the reference compound CGS-15943 was diluted to 0.015 mM with DMSO. Next, 10 points of three-fold serial dilutions were made with ECHO. 900 nl was transferred to the compound plate (Greiner-781280), and 30 ul of compound dilution buffer was added. The final starting concentration of the test compounds was 1 uM and CGS-15943 was 0.075 uM.
Cryopreserved A2A cells were resuscitated, and then resuspended in culture medium to 1×10^6 cells/ml. The suspension was seeded into 384-well polylysine-coated cell plates (Greiner-781946) at 20 μl/well and incubated overnight in a 5% CO2 incubator at 37° C.
The cell plate prepared the day before was taken out from the incubator, and 20 ul of 2× Fluo-4 Direct™ buffer was added to each well. The plate was incubated for 50 minutes in a 5% CO2 incubator at 37° C. and allowed to stand at room temperature for 10 minutes.
Dilution of agonist NECA: 10 points of three-fold serial dilutions were made with Echo for NECA from a starting concentration of 0.15 mM. 900 nL was then transferred to the corresponding compound plate; and then 30 μl of compound dilution buffer was added to the corresponding compound plate. The final starting concentration was 750 nM.
FLIPR instrument software was run. According to the programmed procedure, 10 ul of compound dilution buffer was added to the cell plate and the fluorescence signal was read. 10 ul of the agonist reference compound at the indicated concentration was then added to the cell plate and the fluorescent signal was read. After reading, the data was exported by the “Max-Min”, “Read 90 to Maximum allowed” method in the software, and the EC80 of the A2A cell line was calculated. The agonist was prepared at a concentration of 6× EC80. A 6× EC80 concentration of a reference compound agonist of the corresponding cells was prepared with a buffer solution, and added at 30 ul/well to the corresponding compound plate for use.
FLIPR instrument software was run. According to the programmed procedure, 10 μl of the test compounds and reference compound at an indicated concentration was added to the cell plate and the fluorescence signal was read. 10 ul of the reference compound agonist at a concentration of 6× EC80 was then added to the cell plate and the fluorescent signal was read. For the agonist detection of the compounds, the data was exported by the “Max-Min”, “Read 1 to 90” method in the software. For the antagonist detection of the compound, the data was exported by the “Max-Min”, “Read 90 to Maximum allowed” method in the software. Data were analyzed by GraphPad Prism 5.0 and the IC50 values of the test compounds were calculated.
As usually defined, the IC50 is the point on the concentration scale where inhibition reaches its midpoint. For the compound `Cc1cc(-c2c(-c3cc(F)cc(F)c3)nc(N)n3ncnc23)cc(C(F)(F)F)n1` [Example A-5], the concentration for half-maximal inhibition (IC50) was determined as 0.83 nM.

`COc1ccc(-c2nc(N)n3ncnc3c2-c2cc(C)nc(C(F)(F)F)c2)cc1` [Example A-6]: the IC50 was 1.04 nM.

Turning to `Cc1cc(-c2c(-c3ccccn3)nc(N)n3ncnc23)cc(C(F)(F)F)n1` [Example A-7], the IC50 was determined as 5.83 nM.

For `Cc1cc(-c2c(-c3nccs3)nc(N)n3ncnc23)cc(C(F)(F)F)n1` [Example A-8], the half-inhibitory concentration (IC50) was 23.9 nM.

As to `Cc1cc(-c2c(-c3ccc(Cl)cc3)nc(N)n3ncnc23)cc(C(F)(F)F)n1` [Example A-9], the IC50 is 1.13 nM.

In the case of `Cc1cc(-c2c(-c3ccc(O)cc3)nc(N)n3ncnc23)cc(C(F)(F)F)n1` [Example A-10], the half-maximal inhibitory concentration (IC50) came to 0.88 nM.

In the case of `Cc1cc(-c2c(-c3ccncc3)nc(N)n3ncnc23)cc(C(F)(F)F)n1` [Example A-11], the IC50 is 3.87 nM.

Regarding `Cc1cc(-c2c(-c3cccnc3)nc(N)n3ncnc23)cc(C(F)(F)F)n1` [Example A-12], the half-maximal inhibitory concentration (IC50) turned out to be 11.4 nM.

For the compound `Cc1cc(-c2c(-c3ccc(C(F)(F)F)cc3)nc(N)n3ncnc23)cc(C(F)(F)F)n1` [Example A-13], the IC50 is 13.8 nM.

`Cc1cc(-c2c(-c3ccc(C#N)cc3)nc(N)n3ncnc23)cc(C(F)(F)F)n1` [Example A-14]: the half-inhibitory concentration (IC50) worked out at 4.07 nM.

Regarding `Cc1cc(-c2c(-c3ccc(F)cc3)nc(N)n3ncnc23)cc(C(F)(F)F)n1` [Example A-15], the half-inhibitory concentration (IC50) came out at 0.38 nM.

For `Cc1cc(-c2c(-c3ccccc3F)nc(N)n3ncnc23)cc(C(F)(F)F)n1` [Example A-17], the concentration for half-maximal inhibition (IC50) amounted to 1.3 nM.

`Cc1cc(-c2c(-c3ccco3)nc(N)n3ncnc23)cc(C(F)(F)F)n1` [Example A-19]: the IC50 amounted to 1.16 nM.

On to `Cc1cc(-c2c(-c3ccn(C)n3)nc(N)n3ncnc23)cc(C(F)(F)F)n1` [Example A-21], for which the IC50 came to 0.9 nM.

For `COc1cc(F)ccc1-c1nc(N)n2ncnc2c1-c1cc(C)nc(C(F)(F)F)c1` [Example A-23], the IC50 worked out at 1.15 nM.

Consider `COc1cc(F)ccc1-c1nc(N)n2ncnc2c1-c1cc(C)nc(C)c1` [Example A-24], for which the half-maximal inhibitory concentration (IC50) turned out to be 4.9 nM.

For `Cc1cc(-c2c(-c3ccc(F)cc3F)nc(N)n3ncnc23)cc(C(F)(F)F)n1` [Example A-25], the IC50 was 1.14 nM.

As to `Cc1cc(-c2c(-c3ccc(F)cc3F)nc(N)n3ncnc23)cc(C)n1` [Example A-26], the IC50 was found to be 0.87 nM.

For the compound `COc1ccccc1-c1nc(N)n2ncnc2c1-c1cc(C)nc(C)c1` [Example A-27], the IC50 amounted to 4.38 nM.

As for `Cc1cc(-c2c(-c3ccccc3Cl)nc(N)n3ncnc23)cc(C)n1` [Example A-28], the IC50 turned out to be 37.4 nM.

With `COc1cc(F)ccc1-c1nc(N)n2ncnc2c1-c1ccc2nn[nH]c2c1` [Example A-29], the IC50 stood at 37.2 nM.

As to `COc1ccccc1-c1nc(N)n2ncnc2c1-c1ccc2nn[nH]c2c1` [Example A-30], the half-maximal inhibitory concentration (IC50) stood at 20.4 nM.

Consider `COc1ccccc1-c1nc(N)n2ncnc2c1-c1cc(Cl)nc(C(F)(F)F)c1` [Example A-31], for which the IC50 worked out at 1.25 nM.

`COc1ccc(F)cc1-c1nc(N)n2ncnc2c1-c1cc(Cl)nc(C(F)(F)F)c1` [Example A-32]: the IC50 came to 1.21 nM.

`COc1c(F)cc(F)cc1-c1nc(N)n2ncnc2c1-c1cc(Cl)nc(C(F)(F)F)c1` [Example A-33]: the IC50 amounted to 15.3 nM.

In the case of `Cc1cc(-c2c(-c3ccccc3)nc(N)n3ncnc23)ccc1F` [Example B-2], the IC50 came out at 7.82 nM.

`COc1ccc(-c2c(-c3ccccc3)nc(N)n3ncnc23)cc1Cl` [Example B-3]: the concentration for half-maximal inhibition (IC50) came to 9.92 nM.

For `Nc1nc(-c2ccccc2)c(-c2ccc(O)c(Cl)c2)c2ncnn12` [Example B-4], the IC50 was 0.14 nM.

Consider `Nc1nc(-c2ccccc2)c(-c2ccc3[nH]ncc3c2)c2ncnn12` [Example B-7], for which the IC50 worked out at 0.17 nM.

In the case of `Nc1nc(-c2ccccc2)c(-c2ccc3[nH]cnc3c2)c2ncnn12` [Example B-8], the concentration for half-maximal inhibition (IC50) came to 0.44 nM.

Consider `Nc1nc(-c2ccccc2)c(-c2ccc3c(c2)OCO3)c2ncnn12` [Example B-9], for which the IC50 amounted to 48 nM.

Regarding `Nc1nc(-c2ccccc2)c(-c2ccc3[nH]nc(C(F)(F)F)c3c2)c2ncnn12` [Example B-10], the IC50 was 1.98 nM.

Turning to `Nc1nc(-c2ccccc2)c(-c2ccc(O)c(C(F)(F)F)c2)c2ncnn12` [Example B-13], the 50% inhibitory concentration (IC50) turned out to be 0.71 nM.

For `Nc1nc(-c2ccccc2)c(-c2cc(C(F)(F)F)c3[nH]ncc3c2)c2ncnn12` [Example B-14], the IC50 stood at 0.47 nM.

As to `Nc1nc(-c2ccccc2)c(-c2cc(Cl)c(O)c(Cl)c2)c2ncnn12` [Example B-15], the IC50 was 0.44 nM.

Take `Nc1nc(-c2ccccc2)c(-c2ccc3ncccc3c2)c2ncnn12` [Example B-16]: the IC50 stood at 0.14 nM.

On to `Nc1nc(-c2ccccc2)c(-c2ccc3c(c2)CCCN3)c2ncnn12` [Example B-17], for which the IC50 was 1.89 nM.

As for `Nc1nc(-c2ccccc2)c(-c2ccc3c(c2)CC(=O)N3)c2ncnn12` [Example B-20], the half-inhibitory concentration (IC50) was 71.3 nM.

Consider `Nc1nc(-c2ccccc2)c(-c2cc(C3CC3)nc(C(F)(F)F)c2)c2ncnn12` [Example B-23], for which the IC50 is 50.5 nM.

For `CC1C=C(c2c(-c3ccccc3)nc(N)n3ncnc23)CC(C)O1` (centres unmarked) [Example B-24], the IC50 stood at 1.18 nM.

Regarding `Cc1cc(Cl)cc(-c2c(-c3ccccc3)nc(N)n3ncnc23)c1` [Example B-26], the 50% inhibitory concentration (IC50) was found to be 14.8 nM.

For the compound `COc1cc(-c2c(-c3ccccc3)nc(N)n3ncnc23)ccn1` [Example B-27], the 50% inhibitory concentration (IC50) came out at 0.28 nM.

Consider `COc1cc(-c2c(-c3ccccc3)nc(N)n3ncnc23)cc(C)n1` [Example B-29], for which the half-maximal inhibitory concentration (IC50) amounted to 0.11 nM.

Consider `CCc1cc(-c2c(-c3ccccc3)nc(N)n3ncnc23)cc(C(F)(F)F)n1` [Example B-32], for which the IC50 worked out at 2.83 nM.

As to `Nc1nc(-c2ccccc2)c(-c2ccc3[nH]nnc3c2)c2ncnn12` [Example B-33], the half-inhibitory concentration (IC50) came to 0.12 nM.

In the case of `CC(C)c1cc(-c2c(-c3ccccc3)nc(N)n3ncnc23)cc(C(F)(F)F)n1` [Example B-34], the 50% inhibitory concentration (IC50) came to 19 nM.

Consider `Cc1cc(-c2c(-c3ccccc3)nc(N)n3nc(C)nc23)cc(C(F)(F)F)n1` [Example C-5], for which the 50% inhibitory concentration (IC50) amounted to 0.53 nM.

In the case of `Cc1cc(-c2c(-c3ccccc3)nc(N)n3nc(C)nc23)cc(C)n1` [Example C-6], the half-maximal inhibitory concentration (IC50) is 0.74 nM.

Turning to `CCc1nc2c(-c3cc(C)nc(C(F)(F)F)c3)c(-c3ccccc3)nc(N)n2n1` [Example C-7], the IC50 worked out at 1.35 nM.

For `CCc1nc2c(-c3cc(C)nc(C)c3)c(-c3ccccc3)nc(N)n2n1` [Example C-8], the IC50 is 0.45 nM.

For `Cc1cc(-c2c(-c3ccccc3)nc(N)n3nc(CC4CC4)nc23)cc(C)n1` [Example C-9], the concentration for half-maximal inhibition (IC50) is 1.4 nM.

For the compound `Cc1cc(-c2c(-c3ccccc3)nc(N)n3nc(C4CC4)nc23)cc(C(F)(F)F)n1` [Example C-10], the IC50 stood at 3.68 nM.

As to `Cc1cc(-c2c(-c3ccccc3)nc(N)n3nc(C4CC4)nc23)cc(C)n1` [Example C-11], the IC50 amounted to 0.78 nM.

Consider `Cc1cc(-c2c(-c3ccccc3)nc(N)n3nc(COCc4ccccc4)nc23)cc(C)n1` [Example C-12], for which the IC50 was found to be 0.82 nM.

Take `COCc1nc2c(-c3cc(C)nc(C(F)(F)F)c3)c(-c3ccccc3)nc(N)n2n1` [Example C-13]: the half-inhibitory concentration (IC50) was 1.02 nM.

On to `COCc1nc2c(-c3cc(C)nc(C)c3)c(-c3ccccc3)nc(N)n2n1` [Example C-14], for which the IC50 was determined as 0.68 nM.

For `COc1ccccc1Cc1nc2c(-c3cc(C)nc(C(F)(F)F)c3)c(-c3ccccc3)nc(N)n2n1` [Example C-15], the IC50 is 20.4 nM.

In the case of `COc1ccccc1Cc1nc2c(-c3cc(C)nc(C)c3)c(-c3ccccc3)nc(N)n2n1` [Example C-16], the half-maximal inhibitory concentration (IC50) was found to be 1.77 nM.

In the case of `Cc1cc(-c2c(-c3ccccc3)nc(N)n3nc(CC4CC4)nc23)cc(C(F)(F)F)n1` [Example C-17], the IC50 came out at 10.4 nM.

(Values after patent publication US11117899B2, “[1,2,4]triazolo[1,5-c]pyrimidine derivative as A2A receptor inhibitor” (MEDSHINE DISCOVERY INC., priority 2017, dated 2021).)
